Reference: US8541444B2, “Triazolopyridine 11-beta hydroxysteroid dehydrogenase type I inhibitors” (Bristol-Myers Squibb Company, priority 2007, dated 2013)

Tested on: not listed separately
Assay: Moisture sorption study
Type: physicochemical
Conditions: Form N-1 of the HCl salt; range from about 25 to about 75% RH at 25° C.
Description: Moisture sorption isotherms were collected in a VTI SGA-100 Symmetric Vapor Analyzer using approximately 10 mg of sample. The sample was dried at 60° C. until the loss rate of 0.0005 wt %/min was obtained for 10 minutes. The sample was tested at 25° C. and 3 or 4, 5, 15, 25, 35, 45, 50, 65, 75, 85, and 95% RH. Equilibration at each RH was reached when the rate of 0.0003 wt %/min for 35 minutes was achieved or a maximum of 600 minutes.

Row | SMILES | hygroscopicity (moisture sorption isotherm)
1 | CC(C)(O)c1cccn2c(C3(c4ccc(Cl)cc4)CC3)nnc12.Cl [Example 1G, 2-(3-(1-(4-Chlorophenyl)cyclopropyl)-[1,2,4]triazolo[4,3-a]pyridin-8-yl)propan-2-ol HCl Salt] | non-hygroscopic

Biological target: T1, 11beta-HSD1 (Mus musculus, UniProt P50172)
T1 construct: from tissue; host or cells: whole animal: diet induced obese (DIO) mice, Jackson Laboratory
T1 sequence (P50172 whole entry): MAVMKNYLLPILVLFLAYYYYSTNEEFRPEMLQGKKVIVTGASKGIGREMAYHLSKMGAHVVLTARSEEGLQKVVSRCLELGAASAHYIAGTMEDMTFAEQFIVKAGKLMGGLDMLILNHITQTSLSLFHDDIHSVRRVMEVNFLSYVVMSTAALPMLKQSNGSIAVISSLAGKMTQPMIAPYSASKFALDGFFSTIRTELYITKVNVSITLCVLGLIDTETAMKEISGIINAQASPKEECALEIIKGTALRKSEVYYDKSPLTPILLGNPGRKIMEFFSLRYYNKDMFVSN
Assay: In vivo inhibition of 11beta-HSD1: DHC to corticosterone conversion in DIO mice
Conditions: 30 mpk oral, plasma corticosterone AUC after DHC 10 mg/kg given 60 minutes post compound
Description: The in vivo inhibition of […] 11beta-HSD1 was determined as follows.
Studies were conducted utilizing diet induced obese (DIO) mice obtained from Jackson Laboratory (ME, USA). These mice were fed a 60% fat diet (Research Diets D12492) soon after weaning and kept on this diet for 24 weeks. These mice were individually housed. […]. The animals continued on this diet and were utilized for experimentation at 30 to 32 weeks of age, at which time these mice weighed 45 to 55 grams.
The basic model of 11-dehydrocorticosterone (DHC) administration to mice to produce corticosterone has been reported in the literature for clinical and preclinical evaluation of the activity of 11β-HSD. […] Plasma was separated and collected and immediately frozen at −20° C. until corticosterone analysis could be assessed.
Plasma Corticosterone was measured using an EIA (IDS AC-14F1). Samples were measured at (1:2) for the −30(or −60 minute) and 0 time point and (1:10) for the 30, 60 and 120 minutes time points. AUC was calculated using Graphpad and the zero timepoint was used as the baseline. One way ANOVA was calculated using Sigmastat. […]
The vehicle utilized for the suspension of the compounds was 0.5% methocel; 0.1% tween 80 in water. […] Compounds were administered in 7.5 ml/kg volumes at final dosages of 0.1 to 300 mg/kg depending on the study and compound evaluated.

Row | SMILES | inhibition at 30 mg/kg [%]
2 | CC(C)(O)c1cccn2c(C3(c4ccc(Cl)cc4)CC3)nnc12 [Example 1, 2-(3-(1-(4-Chlorophenyl)cyclopropyl)-[1,2,4]triazolo[4,3-a]pyridin-8-yl) propan-2-ol] | 53
3 | CC(C)(O)c1cccn2c(C3(c4ccc(Cl)cc4)CCC3)nnc12 [Example 11] | 69

Biological target: T2, recombinant human 11beta-HSD1 (Homo sapiens, UniProt P28845)
T2 construct: Full length recombinant human 11β-HSD1 cDNAs and the cDNA encoding human 11β-HSD2 were expressed stably in HEK 293 EBNA cells; made in house; microsome fraction used
T2 sequence (P28845 whole entry): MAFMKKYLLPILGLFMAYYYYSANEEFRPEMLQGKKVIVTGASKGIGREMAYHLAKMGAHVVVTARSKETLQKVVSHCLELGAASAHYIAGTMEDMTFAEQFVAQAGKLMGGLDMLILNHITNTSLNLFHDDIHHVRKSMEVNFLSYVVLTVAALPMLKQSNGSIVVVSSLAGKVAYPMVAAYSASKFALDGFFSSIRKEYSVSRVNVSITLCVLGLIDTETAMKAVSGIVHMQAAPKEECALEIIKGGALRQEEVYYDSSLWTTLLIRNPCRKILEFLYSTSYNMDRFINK
Assay: 11β-HSD1 SPA enzyme assay (in vitro inhibition of recombinant human 11beta-HSD1)
Type: biochemical
Conditions: human 11β-HSD1 microsomes from HEK 293 EBNA cells, 3H-cortisone 40 nM, 4 hrs room temperature
Description: The in vitro inhibition of recombinant human 11beta-HSD1 was determined as follows.
The supernatant was further centrifuged at 105,000×g for […]. The 105,000×g pellet was resuspended in buffer H and centrifuged at 105,000×g for 60 min. […] Aliquots were stored at −80° C. until needed. The protein concentration was measured by the BioRad method using BSA standard.
Compounds were dissolved in DMSO to obtain 10 mM stock concentrations. From the 10 mM stock, the compounds were diluted in DMSO to achieve the concentrations.
11β-HSD1 SPA Enzyme Assay
11β-HSD1 was assayed by Scintillation Proximity assay in a 384-well Perkin Elmer white plate. The dose response of the compounds was determined using 11 half-log dilutions of compound in DMSO in duplicate. To each well, 0.5 μl of compound dilution in DMSO were added. 15 μl of assay buffer (for blanks) or 15 μl of human microsomes in assay buffer were added next and the plates were incubated for 10 min at room temperature. The final microsomal protein concentration was 1.1 μg/assay. Duplicates were in the same plate one row below the other. 10 μl of ^3H-cortisone (final concentration 40 nM) was added to each well and the plate was spun down to mix and bring down the contents to the bottom of the wells. The plates were incubated at room temperature with gentle shaking for 4 hrs. […] Then, 0.5 mg of yttrium silicate SPA beads coupled to anti-cortisol antibody in 20 μl were added to all the wells of plate, which were spun down once more and incubated at room temperature overnight. The plate was read in a TopCount® (1 min/well). Data were uploaded automatically to Tool Set, a Lead Evaluation informatics program for data capture and calculation. Graphs were generated with the Curve Master program.

Row | SMILES | IC50 [nM]
4 | CC(C)(O)c1cccn2c(C3(c4ccc(Cl)cc4)CC3)nnc12 [Example 1, 2-(3-(1-(4-Chlorophenyl)cyclopropyl)-[1,2,4]triazolo[4,3-a]pyridin-8-yl) propan-2-ol] | 2.3
5 | CC(C)(O)c1cccc2c(C3(c4ccc(Cl)cc4)CC3)nnn12 [Example 6, 2-(3-(1-(4-Chlorophenyl)cyclopropyl)-[1,2,3]-triazolo[1,5-a]pyridin-7-yl) propan-2-ol] | 20
6 | CC(C)(O)c1cccn2c(C3(c4ccc(Cl)c(Cc5nnn[nH]5)c4)CC3)nnc12 [Example 42] | 72
7 | CC(C)(O)c1cccn2c(C3(c4ccc(-c5ccc(F)cc5)cc4)CC3)nnc12 [Example 51] | 0.4
8 | CC(C)(O)c1cccn2c(C3(c4ccc(Cl)cc4F)CC3)nnc12 [Example 54] | 0.7
9 | CC(C)(c1cccn2c(C3(c4ccc(Cl)cc4)CCC3)nnc12)c1nnnn1CCC#N [Example 59] | 5490
10 | CC(C)(O)c1cccn2c(C3(C(=O)O)CC3)nnc12 [Example 80] | 7700
11 | CN(C)C(=O)c1ccc(C2(c3nnc4c(C(C)(C)O)cccn34)CC2)cc1 [Example 86] | 35
12 | Cc1ccc(S(=O)(=O)C2(c3nnc4c(C(C)(C)O)cccn34)CC2)cc1C [Example 90] | 1380
13 | CC(C)(O)c1cccn2c(C3(c4nc(-c5ccccc5)c[nH]4)CC3)nnc12 [Example 104] | 191
14 | CC(C)(O)c1cccn2c(C3(c4nc(-c5ccc(F)cc5)cs4)CC3)nnc12 [Example 109] | 0.6
15 | CC(C)(O)c1cccn2c(C3(c4nnn(Cc5ccc(F)cc5)n4)CC3)nnc12 [Example 110] | 104
16 | CC(C)(O)c1cccn2c(C3(c4nc(-c5ccc(Cl)cc5)cs4)CC3)nnc12 [Example 111] | 0.5
17 | CC(C)(O)c1cccn2c(C3(c4nnn(Cc5ccccc5)n4)CC3)nnc12 [Example 112] | 2820
